Test: Catalyst activity in liquid-phase isomerization of α-isophorone to β-isophorone
Conditions: for Rate of formation of β-IP: boiling point, normal pressure, 25 vol.% withdrawal
Excerpt: The apparatus for carrying out the isomerization consists of a mushroom-shaped heater, an isomerization flask with attached distillation column, through which a primary mixture composed of α-IP and β-IP is withdrawn, and a pump for recirculating the unreacted α-isophorone left after the purifying distillation of β-IP. […] The suspension is heated to boiling point at normal pressure and the quantity of the α-IP delivered by a Telab pump is coordinated with the quantity of the distillate withdrawn.
The primary distillate obtained is conveyed to a distillation column operating at a partial vacuum of 5 mbar to 100 mbar. […] The bottom product consisting of unreacted α-isophorone is returned to the isomerization reactor.
(§1) Technical sodium hydroxide in various concentrations is stirred into α-IP in the apparatus already described above. With the identical continuous procedure (see Example 1), at the top of the isomerization unit a withdrawal rate of 25 vol.% of a primary distillate is established, based on the quantity of isomerization and the reflux ratio.
as §1, with “potassium carbonate” for “sodium hydroxide”
Various catalysts containing alkali-metal cations are compared with regard to their catalytic activity during the isomerization under conditions corresponding to those in the previous Examples.
Various alkali-metal bases and alkaline-earth bases used as catalysts are compared with regard to their catalytic activity during the isomerization under conditions corresponding to those in the previous Examples.
Various catalysts containing alkali-metal cations and the elements are compared with regard to their catalytic activity during the isomerization under conditions corresponding to those in the previous Examples.

[1] = 2 × 10^-2 mol.% catalyst per mol α-IP
[2] = 0.2 mmol K2CO3 for 1 mol α-IP, illustrative calculation
[3] = 2 × 10^-0 mol.% catalyst per mol α-IP
[4] = 2 × 10^-1 mol.% catalyst per mol α-IP

Structure (SMILES)	Rate of formation of β-IP [1] [g β-IP/h/liter α-IP]	further results
[Ca+2].[OH-].[OH-] [Ca(OH)2]	41.1	–
O=C(O)O [K2 CO3, potassium carbonate]	73.8	improved space-time yield YR-Z based on the volume of the educt solution used: 80 g β-IP/h per kg α-IP; conversion, β-isophorone per kg of catalyst used and per hour [2]: approximately 422.15 kg; β-IP formation [2]: 74 g β-IP/h/liter; β-IP formation per kg solution [2]: 80.43 g β-IP/h/kg solution; Rate of formation of β-IP [3]: 68.8 g β-IP/h/liter α-IP; Rate of formation of β-IP [4]: 76.4 g β-IP/h/liter α-IP
O=C(O)O [KHCO3]	64.4	–
[K+].[OH-] [KOH]	66.9	–
O=C(O)O [Li2 CO3]	48.3	–
[AlH4-].[Li+] [LiAIH4]	43.3	–
[BH4-].[Li+] [LiBH4]	46.1	–
[Li+].[OH-] [LiOH]	61.3	–
[Mg+2].[OH-].[OH-] [Mg(OH)2]	8.2	Rate of formation of β-IP [4]: 9.3 g β-IP/h/liter α-IP
O=C(O)O [Na2 CO3, sodium carbonate]	47.4	calculated yield based on the quantity of catalyst used, Yβ-IP (0.2 mol.% catalyst, continuous operation): 229.7 kg β-IP/h/kgcat.; space-time yield (per hour and quantity of catalyst used) Y (1 mol.% catalyst): 15.357 kg β-IP/h/kg catalyst; space-time yield YR-Z based on α-IP used (1 mol.% catalyst): 0.086 kg β-IP/h/liter; Rate of formation of β-IP [3]: 72 g β-IP/h/liter α-IP
CC(=O)O [Na(CH3 CO2)]	49.2	–
CO [Na(OMe)]	46.9	–
O=C(O)O [NaHCO3]	55.1	–
[H-].[Na+] [NaH]	58.6	–
[NH2-].[Na+] [NaNH2, sodium amide]	49.6	–
[Na+].[OH-] [NaOH, sodium hydroxide]	54.6	Rate of formation of β-IP [4]: 79.5 g β-IP/h/liter α-IP
[Na] [Na]	53.7	–
O=S(=O)([O-])O.[K+] [kHSO4]	44.7	–

From patent publication US6265617A, “Process for the preparation of 3,5,5-trimethylcyclohexa-3-en-1-one (β-isophorone) by isomerization of 3,5,5- trimethylcyclohexa-2-en-1-one (α-isophorone)” (Degussa-Huls Aktiengesellschaft, priority 1998, dated 2001)
